# Patent US20070043108A1, “Use of equol for ameliorating or preventing neuropsychiatric and neurodegenerative diseases or disorders” (priority 2002, published 2007)
# Several values for one entry are separate records, joined by “and”; a condition that tells them apart may be missing. Equal entries are not always repeated.
# Assays:
# ERα = biological target: T1, ERα (Rattus norvegicus, UniProt P06211); assay: Competition binding of equol enantiomers with [3H]E2 for in vitro translated ERα
# T1 construct: Full length rat ERα expression vector (pcDNA-ERα; RH Price UCSF); made in house; host or cells: TnT-coupled rabbit reticulocyte lysate in vitro translation (Promega)
# T1 sequence (P06211 1-600): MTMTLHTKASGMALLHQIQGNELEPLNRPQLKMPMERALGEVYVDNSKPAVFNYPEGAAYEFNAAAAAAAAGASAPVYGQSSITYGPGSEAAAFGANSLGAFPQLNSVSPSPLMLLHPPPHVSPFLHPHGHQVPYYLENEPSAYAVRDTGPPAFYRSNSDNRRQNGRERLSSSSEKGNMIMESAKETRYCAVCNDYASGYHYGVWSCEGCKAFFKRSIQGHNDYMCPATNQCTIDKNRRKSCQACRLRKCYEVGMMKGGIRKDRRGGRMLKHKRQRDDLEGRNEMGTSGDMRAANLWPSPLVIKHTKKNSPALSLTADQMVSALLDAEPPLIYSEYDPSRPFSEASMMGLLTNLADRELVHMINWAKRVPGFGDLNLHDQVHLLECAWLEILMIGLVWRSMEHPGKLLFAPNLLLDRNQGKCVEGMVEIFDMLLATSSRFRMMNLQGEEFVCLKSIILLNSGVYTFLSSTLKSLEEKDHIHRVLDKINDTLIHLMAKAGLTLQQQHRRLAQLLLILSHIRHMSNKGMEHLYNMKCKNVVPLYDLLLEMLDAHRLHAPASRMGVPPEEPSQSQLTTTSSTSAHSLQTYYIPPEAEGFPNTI
# Method: (§1) In vitro binding studies were performed to examine the relative affinities of S— and R-enantiomeric equol with the estrogen receptors ERα and ERβ.
# (§2) Synthesis of Hormone Receptor Proteins: Full length rat ERα expression vector (pcDNA-ERα; RH Price UCSF) and ERβ expression vector (pcDNA-ERβ; T A Brown, Pfizer, Groton, […].) were used to synthesize hormone receptors in vitro using the TnT-coupled reticulocyte lysate system (Promega, Madison, Wis.) with T7-RNA polymerase, during a 90 min reaction at 30° C. Translation reaction mixtures were stored at −80° C. until further use.
# (§3) Saturation isotherms: In order to calculate and establish the binding affinity of the S-equol and R-equol enantiomers for ERα and ERβ, 100 μL aliquots of reticulocyte lysate supernatant were incubated at optimal time and temperature; 90 min at room temperature (ERβ) and 18 hrs at 4° C. (ERα), with increasing (0.01-100 nm) concentrations of [3H] […] These times were determined empirically and represent optimal binding of receptor with estrogen. Nonspecific binding was assessed using a 300-fold excess of the ER agonist diethylstilbestrol, in parallel tubes. Following incubation, bound and unbound [3H]E2 were separated by passing the incubation reaction through a 1 mL lipophilic Sephadex LH-20 (Sigma-Aldrich Co., Saint Louis, Mo.) column Columns were constructed by packing a disposable pipette tip (1 mL; Labcraft, Curtin Matheson Scientific, Inc, Houston, Tex.) with TEGMD (10 mm Tris-Cl, 1.5 mm EDTA, 10% glycerol, 25 mm molybdate, and 1 mm dithiothreitol, pH 7.4)-saturated Sephadex according to previously published protocols (Wanda et al., 1986; O'Keefe and Handa, 1990). For chromatography, the columns were re-equilibrated with TEGMD (100 μL), and the incubation reactions were added individually to each column and allowed to incubate on the column for an additional 30 min. Following this incubation, 600 μL of TEGMD were added to each column, flow-through was collected, 4 mL scintillation fluid was added, and samples were counted (5 min each) in an 2900 TR Packard scintillation counter (Packard Bioscience, Meriden, Conn.).
# (§4) Competition binding studies were used to assess the estrogenic properties of equol's S-equol and R-equol enantiomers. Based on the ability of S and R to compete with [3H]
# AR = biological target: T2, AR (Rattus norvegicus, UniProt P15207); assay: Binding to the androgen receptor (prostate supernatant, [3H]DHT)
# T2 construct: incubated with prostate supernatant and then passed through the 30 cm column; from tissue; host or cells: prostate supernatant
# T2 sequence (P15207 1-902): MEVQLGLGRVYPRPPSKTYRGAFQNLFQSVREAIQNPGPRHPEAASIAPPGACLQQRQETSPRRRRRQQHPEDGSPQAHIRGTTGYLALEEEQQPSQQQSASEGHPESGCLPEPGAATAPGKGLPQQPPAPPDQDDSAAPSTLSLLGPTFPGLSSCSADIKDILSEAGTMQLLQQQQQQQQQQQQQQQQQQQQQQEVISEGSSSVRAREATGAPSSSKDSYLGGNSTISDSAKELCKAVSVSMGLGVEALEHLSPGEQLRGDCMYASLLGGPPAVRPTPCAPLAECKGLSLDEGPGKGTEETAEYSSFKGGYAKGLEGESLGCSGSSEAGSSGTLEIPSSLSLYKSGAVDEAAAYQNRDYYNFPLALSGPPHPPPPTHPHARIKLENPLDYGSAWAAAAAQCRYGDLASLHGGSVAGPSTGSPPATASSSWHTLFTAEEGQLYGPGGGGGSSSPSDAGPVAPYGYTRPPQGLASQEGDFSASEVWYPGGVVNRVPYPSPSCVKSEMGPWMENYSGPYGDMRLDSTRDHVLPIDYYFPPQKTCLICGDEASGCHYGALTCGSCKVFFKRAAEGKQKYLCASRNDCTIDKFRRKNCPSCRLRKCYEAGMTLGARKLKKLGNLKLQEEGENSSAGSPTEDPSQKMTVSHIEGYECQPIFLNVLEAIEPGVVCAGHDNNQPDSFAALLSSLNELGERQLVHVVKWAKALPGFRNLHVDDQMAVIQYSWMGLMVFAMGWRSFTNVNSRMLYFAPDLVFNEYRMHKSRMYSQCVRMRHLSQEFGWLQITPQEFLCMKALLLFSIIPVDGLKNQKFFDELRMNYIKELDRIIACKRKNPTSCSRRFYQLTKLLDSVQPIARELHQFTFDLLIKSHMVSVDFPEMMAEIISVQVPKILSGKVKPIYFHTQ
# [1] = test system: Adult male Sprague-Dawley rats; assay: Example 15: elevated plus maze of equol injected male rats; format: in vivo, rat; settings: 0.250 mg/Kg/day sc, seven days, n = 8
# Excerpt: The elevated plus maze is a behavioral test used to quantify anxiety-related behavior and identify anxiolytic drugs (Pellow S. et al., J Neurosci Methods, 14:149-147 (1985); Current Protocols In Neuroscience (1997) 8.3.1-8.3.15, John Wiley & Sons. NY, N.Y.). The test relies on the inherent conflict between exploration of a novel environment and avoidance of its aversive features. Normally, animals spend little time and make few entries into the open arms of the maze compared to the closed arms of the maze (Imhof J. T. et al., Behav Brain Res, 56:177-180 (1993). However, animals treated with anxiolytics, such as benzodiazepines (valium), spend more time in the open arms and the number of entries into the open arms reflects a decrease in anxiety-related behaviors (Pellow S. et al., J Neurosci Methods, 14:149-147 (1985); Current Protocols In Neuroscience (1997) 8.3.1-8.3.15, John Wiley & Sons. NY, N.Y.; Chopin P. et al., Psychopharm, 110:409-414 (1993).
# Adult male Sprague-Dawley rats receive daily injections of either DMSO, racemic equol (0.250 mg/Kg/day), R-equol (0.250 mg/Kg/day), or S-equol (0.250 mg/Kg/day) in a total volume of 0.3 cc DMSO by subcutaneous injection. At the end of seven consecutive days of treatment the animals are tested in the elevated plus maze in order to quantify anxiety-related behaviors.
# [2] = test system: Adult male Sprague-Dawley rats; assay: Example 3: prostate, epididymis and body weight gain in male rats treated with racemic, R- or S-equol; format: in vivo, rat; settings: 0.25 mg/kg/day sc, seven days
# Method: Adult male Sprague-Dawley rats are randomly assigned to […] groups and receive daily injections of either DMSO, a racemic mixture of equol at 0.250 mg/kg/day), R-equol at 0.250 mg/kg/day, or S-equol at 0.250 mg/kg/day. The total volume of each injection is 0.3 cc, administered sc at the nape of the rat's neck. After seven consecutive days of treatment, the rats are killed and the body weight gain during the injection period is determined.
# ERβ = biological target: T3, ERβ (Rattus norvegicus, UniProt Q62986); assay: Competition binding of equol enantiomers with [3H]E2 for in vitro translated ERβ
# T3 construct: Full length rat ERα expression vector (pcDNA-ERα; RH Price UCSF) and ERβ expression vector (pcDNA-ERβ; T A Brown, Pfizer; made in house; host or cells: TnT-coupled rabbit reticulocyte lysate in vitro translation (Promega)
# Method: as §1, §2, §3, §4
# [3] = test system: Long-Evans rats, male offspring; assay: Example 19: elevated plus maze of adult male offspring after pre- and early postnatal treatment; format: in vivo, rat
# Method: Pregnant Long-Evans rats were treated via daily subcutaneous injections from gestational day 14 through 20 and during lactation from postnatal day 2 through 25 with: 1) control-DMSO vehicle or, 2) genistein@ 3 mg/day or 3) equol@ 3 mg/day according to the treatment groups. All animals were fed a phytoestrogen-low diet throughout these studies (10 ppm isoflavones). There were no significant differences in maternal body weights just before birth among the treatment groups. […] The maternal and male offspring genistein and equol levels @ 25 days post birth) paralleled that of the treatments administered.
# At approximately 90 days of age the male offspring were tested by treatments (control, genistein and equol) in the EPM that was video-taped for 3 minutes and later recorded for the number of entries into—and the percentage of total time spent—on the open arms, as previously described. […] Equol time intervals were 2-fold greater than genistein values and genistein levels were approximately 9-fold greater than controls.
# GDX males = assay: Examples 5 and 6: gonadectomized (GDX) male rats treated with DHTP, equol or both; histology; format: in vivo, rat
# Method: One week following arrival, animals are gonadectomized (GDX) under isoflurane anesthesia and allowed to recover for 7 days. Following recovery, animals are assigned to the following groups 1) DMSO, 2) DHTP (2 mg/1 kg), 3) racemic equol (0.25 mg/kg), or 4) both DHTP and racemic equol. Injections are given subcutaneously daily for 4 days. Animals are killed via decapitation and trunk blood and tissues are collected for analysis.
# Tissues, including prostate, testes and epididymis, are removed from the animal, dissected free of fat and connective tissues, weighed, fixed by immersion in 4% paraformaldehyde, and then sectioned at 15 μm on a cryostat. Tissue sections are mounted on charged slides (Superfrost Plus, Fisher Scientific, Pittsburgh, Pa.) prewarmed to 23° C., and stained with hematoxylin and eosin (H&E), dehydrated in ascending alcohol and cleared with xylene.
# [4] = competition with [3H]E2, in vitro translated ER
# [5] = 3 mg/day sc to dams, offspring tested at about 90 days
# T3 sequence (Q62986 whole entry): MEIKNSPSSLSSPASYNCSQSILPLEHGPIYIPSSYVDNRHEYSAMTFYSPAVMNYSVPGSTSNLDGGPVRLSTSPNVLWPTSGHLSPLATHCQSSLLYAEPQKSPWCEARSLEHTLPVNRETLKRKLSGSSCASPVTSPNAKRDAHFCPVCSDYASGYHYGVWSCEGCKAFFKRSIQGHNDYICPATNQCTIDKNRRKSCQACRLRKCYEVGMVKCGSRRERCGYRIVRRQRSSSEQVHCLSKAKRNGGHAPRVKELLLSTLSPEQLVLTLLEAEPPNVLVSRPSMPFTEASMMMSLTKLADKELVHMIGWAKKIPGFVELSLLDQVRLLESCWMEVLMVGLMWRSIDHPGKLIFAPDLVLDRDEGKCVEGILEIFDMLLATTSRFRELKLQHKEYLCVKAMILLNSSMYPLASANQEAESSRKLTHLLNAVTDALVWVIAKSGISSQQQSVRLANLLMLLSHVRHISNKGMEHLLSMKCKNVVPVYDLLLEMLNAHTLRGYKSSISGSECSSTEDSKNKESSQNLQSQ
smiles,measurement,setting,value
Oc1ccc([C@H]2COc3cc(O)ccc3C2)cc1 [S-equol],"relative binding affinity for ERα compared with 17β-estradiol, fold less",ERα,49.2 fold and 49 fold
same,Kd,ERα; [4],6.41 ± 1.01 nM
same,binding to the androgen receptor,AR,does not bind the androgen receptor
same,Center Area,[1],27.5 ± 4.1 s
same,Open Arm Time,[1],33.6 ± 7.0 s
same,Body Wt Gain (g),[2],56.1 (±3.1) g
same,Epididymis (g),[2],0.86 (±0.05) g
same,Prostate (g),[2],0.35 (±0.03) g
same,"affinity for ERβ, fold less",ERβ,approximately 5 fold
same,binding to ERβ relative to that of 17β-estradiol,ERβ,approximately 20%
same,Kd,ERβ; as stated in the background section,0.7 nM
same,Kd,ERβ; [4],0.73 ± 0.2 nM
O=c1c(-c2ccc(O)cc2)coc2cc(O)cc(O)c12 [genistein],body weights at birth vs controls,[3]; 3 mg/day sc to dams from gestational day 14,slightly (but not significantly) higher
same,entries into the open arms vs controls,[3]; [5],not significantly different
same,time in the open arms vs controls,[3]; [5],significantly greater
same,"open arm time intervals, fold greater than controls",[3]; offspring tested at about 90 days,approximately 9 fold
"CCC(=O)O[C@H]1CC[C@H]2[C@@H]3CC[C@H]4CC(=O)CC[C@]4(C)[C@H]3CC[C@]12C [DHTP, DHT propionate, reference compound]",LH,"GDX males; GDX males, given alone, vs DMSO",significantly decreased
same,prostate weight,"GDX males; GDX males, given alone, vs vehicle-treated GDX",significant increase
same,plasma 5α-DHT,"GDX males; GDX, DHTP 2 mg/kg sc daily for 4 days",significant elevations
